These results are taken from US7488425B2, “Method for photolyzing organic matter and method for treating wastewater” (Nisshinbo Industries, Inc., priority 2004, dated 2009).

The nature of data set [1]: Solubility of the ionic liquid in simple distilled water. Format: physicochemical. As to conditions: 25° C. The procedure: (§1) The solubility in simple distilled water (25° C.) was about 1.5 wt %.
Data set [2] is described as follows: Mixing with simple distilled water (phase separation, hydrophobicity). Format: physicochemical.
Description: As used herein, “hydrophobic” refers to the property of, after being mixed or stirred with water, separating again into two phases on standing. While it suffices for the hydrophobic ionic liquid to have this quality, when the above photolytic process is employed for the subsequently described wastewater treatment or the like, a hydrophobic ionic liquid with a lower solubility in water will result in a smaller loss of ionic liquid during wastewater treatment and enable treated water having a higher degree of cleanliness to be obtained.
as §1

Structures can show the parent of a compound that is named as a salt.

Consider `CC[N+](C)(CC)CCOC` [ionic liquid (2), Bis(trifluoromethanesulfonyl)imide Salt of N,N-Diethyl-N-methyl-N-(2-methoxyethyl)ammonium], for which the “solubility in simple distilled water” value in data set [1] is recorded as “about 1.5 wt %”. The “behaviour when mixed with simple distilled water” value in data set [2] is “separated into two phases”. Turning to `CCn1cc[n+](C)c1.O=S(=O)([O-])C(F)(F)F` [EMIMTfO, 1-ethyl-3-methylimidazolium trifluoromethanesulfonate, reference compound], the “behaviour when mixed with simple distilled water” value in data set [2] is “forms a homogeneous phase”.
